Test results: article PMC10165273, “Itch receptor MRGPRX4 interacts with the receptor activity–modifying proteins” (The Journal of Biological Chemistry, 2023)
Values joined by “and” are separate entries in the source; they are usually repeats but may differ in a detail not shown here. Equal entries are not always repeated. Where two headings read alike, the source gives them in different places.

Assays:
MRGPRX4 + RAMP2 = target: T1, MRGPRX4 + RAMP2 (Homo sapiens, UniProt Q96LA9); experiment: BRET2 β-arrestin2 recruitment, MRGPRX4 with RAMP2; type: cell-based; settings: for BRET2 ratio, time course (Figure 5e): MRGPRX4 + RAMP2 100μM Ng, listed as Ng
T1 construct: expressed in transfected cells; host or cells: HEK293T
Experimental: (§1) The method for homogenous transfection of β-Arrestin and BRET^2 assay of β-Arrestin recruitment has been described previously ([51]). […] BRET^2 measurements were taken on the BioTek Synergy NEO2 microplate reader.
To measure the time-course of β-Arrestin2 recruitment to MRGPRX4 and CALCRL, the transfection and general procedure described above was followed, with the modification that Prolume Purple was added first, followed by addition of the appropriate agonists ([51]).
(§2) The BRET ratio for each sample was determined by calculating the ratio of the light intensity emitted by the GFP10 (515 nm) (acceptor) over the light intensity emitted by the RLuc3 (395 nm) (donor). Net BRET^2 was determined by subtracting the basal BRET^2 (β-arrestin-RLuc3 only) signal from the BRET^2 signals. All BRET values were normalized to the MRGPRX4-only condition.

MRGPRX4 [1] = tested on: MRGPRX4; set-up: method as in Cao et al. [23]; settings: ref Cao et al. [23]; read-out: Ca2+ flux EC50; cited from earlier work
mock (βArr2) = experiment: BRET2 β-arrestin2 recruitment, mock-transfected cells; type: cell-based, human; settings: 100µM Ng
MRGPRX4 + RAMP3 = target: T2, MRGPRX4 + RAMP3 (Homo sapiens, UniProt Q96LA9); experiment: BRET2 β-arrestin2 recruitment, MRGPRX4 with RAMP3; type: cell-based
T2 construct: expressed in transfected cells; host or cells: HEK293T
Experimental: as §1, §2

MRGPRX4 [2] = tested on: MRGPRX4; set-up: method as in PMID 25895059; settings: ref [10]; read-out: phosphatidylinositol hydrolysis EC50; cited from earlier work

T1 sequence (Q96LA9 whole entry): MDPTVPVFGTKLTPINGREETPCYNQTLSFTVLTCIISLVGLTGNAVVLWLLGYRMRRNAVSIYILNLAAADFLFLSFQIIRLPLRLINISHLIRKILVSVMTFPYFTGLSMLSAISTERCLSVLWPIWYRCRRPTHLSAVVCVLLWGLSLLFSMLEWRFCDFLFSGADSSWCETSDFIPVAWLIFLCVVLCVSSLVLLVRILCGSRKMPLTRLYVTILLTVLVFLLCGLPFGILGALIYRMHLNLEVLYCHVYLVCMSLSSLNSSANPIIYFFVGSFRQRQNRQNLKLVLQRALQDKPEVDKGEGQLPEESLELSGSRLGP
T2 sequence (Q96LA9 whole entry): as above

For `CC(C)[C@H]1CC[C@H](C(=O)N[C@H](Cc2ccccc2)C(=O)O)CC1` [Nateglinide], the “BRET2 ratio, time course (Figure 5e)” value (MRGPRX4 + RAMP2; 60 seconds) was 0.009668 and 0.00973 and 0.009697, the “BRET2 ratio, time course (Figure 5e)” value (MRGPRX4 + RAMP2; 120 seconds) was 0.01023 and 0.01 and 0.01054 and the “BRET2 ratio, time course (Figure 5e)” value (MRGPRX4 + RAMP2; 180 seconds) was 0.01074 and 0.009771 and 0.01057. The “BRET2 ratio, time course (Figure 5e)” value (MRGPRX4 + RAMP2; 240 seconds) was 0.01008 and 0.0101 and 0.01015, the “BRET2 ratio, time course (Figure 5e)” value (MRGPRX4 + RAMP2; 300 seconds) was 0.009689 and 0.009979 and 0.01017 and the “BRET2 ratio, time course (Figure 5e)” value (MRGPRX4 + RAMP2; 360 seconds) was 0.009793 and 0.009837 and 0.01091. For the same compound, the “BRET2 ratio, time course (Figure 5e)” value (MRGPRX4 + RAMP2; 420 seconds) was 0.009697 and 0.01031 and 0.01076, the “BRET2 ratio, time course (Figure 5e)” value (MRGPRX4 + RAMP2; 480 seconds) was 0.00993 and 0.009604 and 0.009499 and the “BRET2 ratio, time course (Figure 5e)” value (MRGPRX4 + RAMP2; 540 seconds) was 0.00961 and 0.009808 and 0.01044. The “BRET2 ratio, time course (Figure 5e)” value (MRGPRX4 + RAMP2; 600 seconds) was 0.01026 and 0.01047 and 0.00952, the “BRET2 ratio, time course (Figure 5e)” value (MRGPRX4 + RAMP2; 660 seconds) was 0.009244 and the “decrease in β-arrestin2 recruitment upon nateglinide treatment” value (MRGPRX4 + RAMP2; RAMP2 coexpression vs MRGPRX4 alone (Fig. 5F)) was 73%. The EC50 (MRGPRX4 [1]) was 4.72 µM, the “β-arrestin recruitment BRET2 signal (Figure 5d)” value (mock (βArr2)) was -0.01563 and the “normalized β-arrestin2 recruitment BRET2 signal (Figure 5f)” value (MRGPRX4 + RAMP3; MRGPRX4 + RAMP3, 100μM Ng, listed as Ng) was 0.6122 and 0.604 and 0.6466 and 0.7957. For the same compound, the “attenuation of β-arrestin2 recruitment upon nateglinide treatment” value (MRGPRX4 + RAMP3; RAMP3 coexpression vs MRGPRX4 alone (Fig. 5F)) was 34% and the EC50 (MRGPRX4 [2]) was 2.1 µM.
